Reference: patent US20080081781A1, “Methods and compositions for the treatment of metabolic syndrome” (priority 2004, published 2008)

How the values were obtained:
InsR mRNA = InsR mRNA expression in HepG2 cells (real time RT-PCR, slot blot); format: cell-based, human; settings: HepG2, 2.5 μg/ml for 8 hours
Method: Cells from the human hepatoma cell line HepG2 were incubated with 0, 1, 2.5, 5, 10 or 15 μg/ml of berberine respectively for eight hours. Total cellular RNA was isolated using the Ultraspec RNA lysis solution (Biotecxs Laboratory, Houston, Tex.) following the vender's protocols. […] of the RNA sample was transferred to nitrocellulose membrane via a slot-blot apparatus (Schleicher & Schuell, Keene, N.H.). The blots were fixed by baking at 80° C. for 2 h, followed by hybridization to a 0.89-kb long, 32P-labelled human InsR cDNA probe. The same membranes were then stripped and re-hybridized to a human ACTB probe as internal control. Quantitative real time RT-PCR assays were also done. For the RT-PCR assay, total cellular RNA was reverse-transcribed into cDNA using the Reverse Transcription System (Promega, Madison, Wis.). Quantitative real-time PCR were performed with these cDNA using the Applied Biosystems 7500 Real-Time PCR System and TaqMan® Universal PCR Master Mix (Applied Biosystems, Foster City, Calif.). […] 2.5 μl of cDNA sample, 12.5 μl of Universal PCR Master Mix, and 1.25 μl of TaqMan® Gene Expression Assay reagent were mixed in a 25 μl reaction system, and the comparative CT method was used in relative gene quantification using the TaqMan® SDS analysis software. […]

rat model subjects = test: Combinatorial anti-hyperlipidemia efficacy of berberine and lovastatin in rats (Table 9); format: in vivo
LDLR mRNA [1] = test: LDLR mRNA levels in Bel-7402 cells (quantitative RT-PCR); format: cell-based, human
Method: Bel-7402 cells were treated with 0, 0.5, 1, 2.5, 5, μg/ml of berberine or 2.5, 7.5 and 15 μg/ml of berberine sulfate. The cells were then centrifuged and washed and LDLR mRNA was extracted. LDLR mRNA levels were then measured using scan quantitative RT-PCR, (FIGS. 3 A and B).

LDLR mRNA [2] = test: Screen of 700 compounds from Chinese herbs for LDLR mRNA in HepG2 cells (semi-quantitative RT-PCR); format: cell-based, human; settings: HepG2, 24 hours
Method: In exemplary experiments, cells from a human hepatoma-derived cell line, HepG2, were treated for 24 hours with 700 compounds isolated from Chinese herbs. RNA was then isolated from the cells and analysis of LDLR mRNA was determined using semi-quantitative RT-PCR assays. […] Treating HepG2 cells cultured in medium containing 0.5% lipoprotein-depleted fetal bovine serum or serum supplemented with sterols and berberine caused time dependent increases in the expression of LDLR mRNA.

clinical = settings: human, in vivo, po, 300 mg
Method: Healthy human volunteers were given 300 mg of berberine orally. […] The blood concentration curve was analyzed by 3P87 Pharmacokinetics Software program (Chinese Pharmacological Association, China).

rats = test: Long term toxicity in rats; format: in vivo, rat; settings: 300 mg/kg orally for 182 days
Method: For long term toxicity determination, rats were administered 300 mg/kg of berberine orally for 182 days.

InsR [3] = test: Cell surface InsR expression in HepG2 cells (flow cytometry); format: cell-based, human; settings: HepG2, 2.5-15 μg/ml, eight hours
Method: The effect of berberine was also time-dependent. HepG2 cells were treated with 7.5 μg/ml for 0, 2, 4, 6, 8 or 24 hours and total RNA was isolated as described above for slot blot and RT-PCR assays of InsR mRNA and ACTB mRNA expression. The level of InsR mRNA increased 4 h after exposure of cells to berberine and reached the peak level of 2.5-fold of the control at 8 h; the expression of InsR mRNA remained high for at least 24 h (FIG. 16). HepG2 cells cultured with 0, 2.5, 5, 10 or 15 μg/ml of berberine or normal mouse IgG (FIG. 17) for eight hours then detached, washed and resuspended in FACS solution (PBS with 0.5% BSA and 0.02% sodium azide) at a density of 1×10^6 cells/ml. Cells were then incubated with a monoclonal antibody to InsR (NeoMarkers, Fremont, Calif.) at a final dilution of 1:100 (room temperature, 0.5 h). An isotype-matched, nonspecific mouse IgG was used as a control for nonspecific staining. Then, cells were washed and stained with FITC conjugated goat-anti-mouse IgG (Santa Cruz Biotech, 1:200 dilution). The fluorescent intensity was examined by flow cytometry (FAC Sort, Becton Dickinson, Calif.).

HMG-CoA reductase mRNA = HMG-CoA reductase mRNA stability in HepG2 cells; format: cell-based, human; settings: HepG2, berberine 15 hours then actinomycin D
Method: HepG2 cells were cultured and then left alone or treated with berberine for 15 hours. After 15 hours, actinomycin D (5 μg/ml) was added to cells at 0, 20, 40, 60, 90, 120, or 150 minutes. Total mRNA was isolated and analyzed by Northern blot for the amount of LDLR mRNA. […] In contrast, the mRNA stability of HMG-CoA reductase was not altered by berberine.

InsR [4] = test: InsR expression on peripheral blood lymphocytes of patients (flow cytometry); format: in vivo, human; settings: patients after two months of berberine
From the text: Peripheral blood lymphocytes (PBL) were collected for InsR expression analysis. InsR protein expressed on the surface of peripheral blood lymphocytes were stained with monoclonal antibody against human insulin receptor (Pharmagen, San Diego, Calif.) and analyzed in a flow cytometer (BD and Company, San Jose, Calif.)

[5] = high fat diet rats treated for 15 days, berberine 80 mg/kg/day, lovastatin 10 mg/kg/day
[6] = high fat diet rats, Day 0 (untreated rats, baseline)

## COc1ccc2cc3[n+](cc2c1OC)CCc1cc2c(cc1-3)OCO2 [berberine]
InsR mRNA
  increase of InsR mRNA: 40%
Rat model subjects; [5]
  Cholesterol Day 15: 2.75 mmol/L
  LDL Day 15: 1.7 mmol/L
Rat model subjects; [6]
  Cholesterol Day 0: 3.65 mmol/L
  LDL Day 0: 2.25 mmol/L
LDLR mRNA [1]; 5 μg/ml
  increase of LDLR mRNA expression: 2.3 fold
LDLR mRNA [1]; berberine 0.5-5 μg/ml, berberine sulfate 2.5, 7.5, 15 μg/ml
  LDLR mRNA expression, dose dependence: increased LDLR mRNA expression in a dose dependent fashion
LDLR mRNA [2]
  LDLR expression among 700 compounds tested: greatest increase in LDLR expression
clinical
  AUC: 2800 ng·h/mL
  Cmax: 395 ng/mL
  clear rate CL: 130.5 L/h
  half-life: 175 min
rats
  long term toxicity: blood tests, blood biochemistry, urine analysis, histopathology: No abnormalities were found
InsR [3]
  cell surface InsR expression: increased cell surface expression
HMG-CoA reductase mRNA
  mRNA stability of HMG-CoA reductase: not altered
InsR [4]
  % of PBL expressing InsR on the surface: significantly increased
